The values below come from ChEMBL document CHEMBL4823307, “Discovery of benzimidazole derivatives as potent and selective aldehyde dehydrogenase 1A1 (ALDH1A1) inhibitors with glucose consumption improving activity” (Bioorg Med Chem, 2021).

Active and inactive are the calls of the source. No cut-off for these calls is given here.

System in one data set: not listed separately
The data set can be described thus: Cytotoxicity against human HepG2 cells assessed as cell viability at 0.1 uM incubated for 24 hrs by MTT assay relative to control. To be noted: read-out: Activity. The format is cell-based. (In general: Tetrazolium dyes change colour on reduction, which living cells bring about.)
Regarding `CC(C)CCn1c(CN2CCN(C(=O)c3ccco3)CC2)nc2c1c(=O)n(C)c(=O)n2C`, the viability at 24 h, 0.1 µM is 100%.

System in another data set: not listed separately
Put plainly: Cytotoxicity against human HepG2 cells assessed as cell viability at 10 uM incubated for 24 hrs by MTT assay relative to control. It counts as cell-based. As to conditions: read-out: Activity.
In the case of `CC(C)CCn1c(CN2CCN(C(=O)c3ccco3)CC2)nc2c1c(=O)n(C)c(=O)n2C`, the viability at 24 h, 10 µM came to 98.2%.

System in the next data set: not listed separately
Put plainly: Cytotoxicity against human HepG2 cells assessed as cell viability at 1 uM incubated for 24 hrs by MTT assay relative to control. It counts as cell-based. To be noted: read-out: Activity.
As for `CC(C)CCn1c(CN2CCN(C(=O)c3ccco3)CC2)nc2c1c(=O)n(C)c(=O)n2C`, the viability at 24 h, 1 µM was found to be 100%.

Another data set deals with T1, Aldehyde dehydrogenase 1A1 (Homo sapiens) (UniProt P00352).
T1 sequence (whole entry): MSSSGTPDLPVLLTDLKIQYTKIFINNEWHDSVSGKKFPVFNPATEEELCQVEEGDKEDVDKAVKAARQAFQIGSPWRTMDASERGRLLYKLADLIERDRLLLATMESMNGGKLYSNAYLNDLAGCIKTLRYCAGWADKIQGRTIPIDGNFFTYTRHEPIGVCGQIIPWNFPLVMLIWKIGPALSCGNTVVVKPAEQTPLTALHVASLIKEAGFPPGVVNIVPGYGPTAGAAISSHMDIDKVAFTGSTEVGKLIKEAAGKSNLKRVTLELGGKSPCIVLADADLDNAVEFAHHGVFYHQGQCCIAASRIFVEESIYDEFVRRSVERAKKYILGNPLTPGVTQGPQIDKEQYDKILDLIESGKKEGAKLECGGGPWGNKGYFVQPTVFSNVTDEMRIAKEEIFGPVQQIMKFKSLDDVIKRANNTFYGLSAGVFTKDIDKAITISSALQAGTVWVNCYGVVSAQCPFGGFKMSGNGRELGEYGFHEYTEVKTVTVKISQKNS
The data set can be described thus: Inhibition of human ALDH1A1 assessed as NADH formation using propionaldehyde as substrate at 10 uM by spectrophotometry.
Conditions: not given
For orientation: inhibition means the change of the read-out against control, counted positive when it falls. As for `Cc1cccc(Cn2c(OC3CCN(C(=O)c4ccco4)CC3)nc3ccccc32)c1`, the inhibition stood at 68.3%.

As for `Cc1cccc(Cn2c(CN3CCN(C(=O)C4CCCCC4)CC3)nc3ccccc32)c1`, the inhibition is 31.9%.

Regarding `Cc1cccc(Cn2c(CN3CCN(C(=O)CC(C)C)CC3)nc3ccccc32)c1`, the inhibition was 71.4%.

Consider `O=C(C1CC1)N1CCN(Cc2nc3ccccc3n2Cc2ccccc2C(F)(F)F)CC1`, for which the inhibition is 56.3%.

Turning to `Cc1cccc(Cn2c(NC3CCN(C(=O)C4CC4)CC3)nc3ccccc32)c1`, the inhibition was found to be 49.1%.

On to `CC(C)CCn1c(CN2CCN(C(=O)c3ccco3)CC2)nc2ccccc21`, for which the inhibition is 42.1%.

On to `O=C(C1CC1)N1CCN(Cc2nc3ccccc3n2Cc2ccccc2F)CC1`, for which the inhibition turned out to be 40.7%.

As to `Cc1cccc(Cn2c(CN3CCN(C(=O)c4cccs4)CC3)nc3ccccc32)c1`, the inhibition stood at 60.8%.

As to `CCCCn1c(CN2CCN(C(=O)C3CC3)CC2)nc2ccccc21`, the inhibition was found to be 18.2%.

As to `Cc1cccc(Cn2c(CN3CCN(C(=O)c4ccncc4)CC3)nc3ccccc32)c1`, the inhibition came out at 20.6%.

Turning to `O=C(C1CC1)N1CCN(Cc2nc3ccccc3n2CC2CC2)CC1`, the inhibition was found to be 21.2%.

Turning to `Cc1cccc(Cn2c(CN3CCN(C(=O)c4cccnc4)CC3)nc3ccccc32)c1`, the inhibition came to 24.5%.

Turning to `Cc1cccc(Cn2c(NC3CCN(C(=O)c4ccco4)CC3)nc3ccccc32)c1`, the inhibition worked out at 27.9%.

As to `Cc1cccc(Cn2c(CN3CCN(C(=O)c4ccccc4)CC3)nc3ccccc32)c1`, the inhibition stood at 60.9%.

For `Cc1cccc(Cn2c(CN3CCN(C(=O)c4ccco4)CC3)nc3ccccc32)c1`, the inhibition was found to be 73.2%.

As to `Cc1cccc(Cn2c(CN3CCN(C(=O)C4CCCC4)CC3)nc3ccccc32)c1`, the inhibition stood at 67.5%.

Turning to `Cc1ccc(C(=O)N2CCN(Cc3nc4ccccc4n3Cc3cccc(C)c3)CC2)cc1`, the inhibition was 64.9%.

On to `O=C(C1CC1)N1CCN(Cc2nc3ccccc3n2Cc2ccc(C(F)(F)F)cc2)CC1`, for which the inhibition came to 37%.

For the compound `Cc1cccc(Cn2c(CN3CCN(C(=O)c4ccc([N+](=O)[O-])cc4)CC3)nc3ccccc32)c1`, the inhibition amounted to 24.3%.

With `CCn1c(CN2CCN(C(=O)C3CC3)CC2)nc2ccccc21`, the inhibition was found to be 20.8%.

For the compound `O=C(C1CC1)N1CCN(Cc2nc3ccccc3n2Cc2cccc(F)c2)CC1`, the inhibition came out at 27.1%.

`Cc1cccc(Cn2c(CN3CCN(C(=O)C4CCC4)CC3)nc3ccccc32)c1`: the inhibition amounted to 69.1%.

Regarding `CC(C)CCn1c(CN2CCN(C(=O)C3CC3)CC2)nc2ccccc21`, the inhibition amounted to 70%.

Take `O=C(C1CC1)N1CCN(Cc2nc3ccccc3n2Cc2ccccc2)CC1`: the inhibition was 23.9%.

Take `Cc1ccccc1Cn1c(CN2CCN(C(=O)C3CC3)CC2)nc2ccccc21`: the inhibition came to 29.1%.

Turning to `CC(C)CCn1c(OC2CCN(C(=O)c3ccco3)CC2)nc2ccccc21`, the inhibition stood at 30.8%.

`Cc1cccc(Cn2c(CN3CCN(C(=O)c4ccc(C(F)(F)F)cc4)CC3)nc3ccccc32)c1`: the inhibition is 22.9%.

For the compound `O=C(C1CC1)N1CCN(Cc2nc3ccccc3n2CC2CCCC2)CC1`, the inhibition came out at 44.5%.

Consider `Cc1cccc(Cn2c(OC3CCN(C(=O)C4CC4)CC3)nc3ccccc32)c1`, for which the inhibition stood at 80.6%.

Consider `Cc1cccc(Cn2c(CN3CCN(C(=O)c4ccc(Cl)cc4)CC3)nc3ccccc32)c1`, for which the inhibition came to 23.2%.

For `CC(=O)N1CCN(Cc2nc3ccccc3n2Cc2cccc(C)c2)CC1`, the inhibition was found to be 70.3%.

`COc1cccc(Cn2c(CN3CCN(C(=O)C4CC4)CC3)nc3ccccc32)c1`: the inhibition came to 44.4%.

For `CC(C)CCn1c(NC2CCN(C(=O)C3CC3)CC2)nc2ccccc21`, the inhibition came to 10.8%.

On to `CC(C)CCn1c(OC2CCN(C(=O)C3CC3)CC2)nc2ccccc21`, for which the inhibition is 56.4%.

Regarding `Cc1cccc(Cn2c(CN3CCN(C(=O)c4ccc(Br)cc4)CC3)nc3ccccc32)c1`, the inhibition amounted to 25.8%.

Regarding `Cc1cccc(Cn2c(CN3CCN(C(=O)c4ccc(F)cc4)CC3)nc3ccccc32)c1`, the inhibition came to 27.1%.

With `O=C(C1CC1)N1CCN(Cc2nc3ccccc3n2Cc2ccc(F)cc2)CC1`, the inhibition is 32.7%.

Turning to `CC(C)Cn1c(CN2CCN(C(=O)C3CC3)CC2)nc2ccccc21`, the inhibition turned out to be 13.1%.

`O=C(C1CC1)N1CCN(Cc2nc3ccccc3n2Cc2ccc(Cl)cc2)CC1`: the inhibition was determined as 56.6%.

Take `Cc1cccc(Cn2c(CN3CCN(C(=O)c4ccc(C(C)C)cc4)CC3)nc3ccccc32)c1`: the inhibition amounted to 67.6%.

Turning to `Cc1ccc(Cn2c(CN3CCN(C(=O)C4CC4)CC3)nc3ccccc32)cc1`, the inhibition is 51.5%.

Turning to `Cc1cccc(Cn2c(CN3CCN(C(=O)c4ccc(C#N)cc4)CC3)nc3ccccc32)c1`, the inhibition is 20.8%.

Take `CCc1ccc(C(=O)N2CCN(Cc3nc4ccccc4n3Cc3cccc(C)c3)CC2)cc1`: the inhibition was 67%.

With `COc1ccc(C(=O)N2CCN(Cc3nc4ccccc4n3Cc3cccc(C)c3)CC2)cc1`, the inhibition stood at 55.5%.

As to `CCCC(=O)N1CCN(Cc2nc3ccccc3n2Cc2cccc(C)c2)CC1`, the inhibition was 79%.

For another data set, the system named is HepG2. The data set can be described thus: Increase in glucose consumption in human HepG2 cells at 10 uM by glucose oxidase assay. It counts as functional.
Conditions: not given
As for `CC(C)CCn1c(CN2CCN(C(=O)c3ccco3)CC2)nc2c1c(=O)n(C)c(=O)n2C`, the result was inactive.
